In the data set the target is ATP-dependent translocase ABCB1 (Homo sapiens, UniProt P08183). Nature of the data set: TP_TRANSPORTER: transepithelial transport (basal to apical) in LLC-MDR1 cells. The data set is classed as functional, cell-based. Conditions: pig.
Chain of ATP-dependent translocase ABCB1 (P08183 whole entry): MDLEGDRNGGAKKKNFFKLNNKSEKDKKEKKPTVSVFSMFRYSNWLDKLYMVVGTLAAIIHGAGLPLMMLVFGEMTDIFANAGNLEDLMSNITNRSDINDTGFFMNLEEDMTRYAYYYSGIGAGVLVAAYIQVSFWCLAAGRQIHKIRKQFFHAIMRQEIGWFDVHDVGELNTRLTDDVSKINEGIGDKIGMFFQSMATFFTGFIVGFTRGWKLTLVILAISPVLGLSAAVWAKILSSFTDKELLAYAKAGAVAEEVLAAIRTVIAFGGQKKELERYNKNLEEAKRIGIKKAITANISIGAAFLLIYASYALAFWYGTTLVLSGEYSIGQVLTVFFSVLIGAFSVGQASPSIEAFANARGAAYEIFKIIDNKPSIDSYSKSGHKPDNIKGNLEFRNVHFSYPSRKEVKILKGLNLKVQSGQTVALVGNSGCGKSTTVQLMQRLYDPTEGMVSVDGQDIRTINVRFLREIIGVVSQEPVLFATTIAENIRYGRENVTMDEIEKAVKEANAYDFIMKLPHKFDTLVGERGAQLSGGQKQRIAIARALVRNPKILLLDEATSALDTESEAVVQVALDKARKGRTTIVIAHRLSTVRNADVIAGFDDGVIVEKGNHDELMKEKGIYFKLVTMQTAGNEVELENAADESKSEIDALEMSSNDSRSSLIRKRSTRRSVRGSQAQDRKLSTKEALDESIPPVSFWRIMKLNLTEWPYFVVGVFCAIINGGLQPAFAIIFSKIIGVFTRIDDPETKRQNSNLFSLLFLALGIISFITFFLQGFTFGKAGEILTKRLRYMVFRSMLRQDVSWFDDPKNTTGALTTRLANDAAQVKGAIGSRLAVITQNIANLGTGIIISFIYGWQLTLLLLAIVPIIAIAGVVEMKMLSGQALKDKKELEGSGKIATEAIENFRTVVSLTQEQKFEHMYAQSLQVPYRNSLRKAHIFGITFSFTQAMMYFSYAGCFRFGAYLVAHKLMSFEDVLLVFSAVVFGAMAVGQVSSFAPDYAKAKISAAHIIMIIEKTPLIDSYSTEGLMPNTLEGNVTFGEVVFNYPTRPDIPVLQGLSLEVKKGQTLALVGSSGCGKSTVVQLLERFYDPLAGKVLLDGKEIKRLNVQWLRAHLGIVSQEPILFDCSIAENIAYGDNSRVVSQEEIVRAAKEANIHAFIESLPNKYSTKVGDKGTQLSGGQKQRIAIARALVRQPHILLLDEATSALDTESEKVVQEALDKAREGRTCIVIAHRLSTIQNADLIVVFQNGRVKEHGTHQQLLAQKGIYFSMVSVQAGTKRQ

In the case of `Clc1ccc(-c2cc(Cl)c(Cl)c(Cl)c2)cc1Cl` [POLYCHLORINATED BIPHENYL 126], the Activity entry was “substrate [+]”.

Values taken from ChEMBL document CHEMBL2073806, “Effect of PCB-126 on intracellular accumulation and transepithelial transport of vinblastine in LLC-PK1 and its transformant cells expressing human P-glycoprotein” (J Vet Med Sci, 2004).
